The results in this text go back to the supplement of paper PMC10307832.

Common to all, as to assay: relative viability (nuclei count vs DMSO), 5 days (fraction); higher = more cells survive
Compound in assay [1]: COc1cc2c(Oc3ccc4[nH]c(C)cc4c3F)ncnc2cc1OCCCN1CCCC1 [Cediranib] + CC(=O)c1c(C)c2cnc(Nc3ccc(N4CCNCC4)cn3)nc2n(C2CCCC2)c1=O [Palbociclib] (partner 0.5 µM)
In short, it runs like this:
(§1)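 Medians of duplicate plates are given as relative viability. That measure is the nuclei count in treated wells divided by the count in vehicle wells. Counts were taken on 4× images of lung cancer cell lines in 1536-well plates, 5 days after pin-tool dosing the day after seeding with one drug alone or a fixed anchor-drug dose plus five library-drug doses (not always all listed) in √10 steps.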

Compound in assay [2]: COc1cc2c(Oc3ccc4[nH]c(C)cc4c3F)ncnc2cc1OCCCN1CCCC1 [Cediranib] + CCNC(=O)c1noc(-c2cc(C(C)C)c(O)cc2O)c1-c1ccc(CN2CCOCC2)cc1 [Luminespib] (partner 0.01 µM)
An outline of the steps:
as §1

Compound in assay [3]: Nc1ncn([C@H]2C[C@H](O)[C@@H](CO)O2)c(=O)n1 [Decitabine] + Cc1nc(Nc2ncc(C(=O)Nc3c(C)cccc3Cl)s2)cc(N2CCN(CCO)CC2)n1 [Dasatinib] (partner 0.075 µM)
In short, it runs like this: as §1

Compound in assay [4]: O=C(C[C@H]1NCCC[C@@H]1O)Cn1cnc2cc(Br)c(Cl)cc2c1=O (racemic) [Halofuginone] + Nc1nc2[nH]cc(CCc3ccc(C(=O)N[C@@H](CCC(=O)O)C(=O)O)cc3)c2c(=O)[nH]1 [Pemetrexed] (partner 0.2 µM)
An outline of the steps:
as §1

Turning to COR-L23, the relative viability in assay [1] (first compound 0.04 µM) worked out at 0.282; in assay [1] (first compound 0.1265 µM), 0.349; in assay [1] (first compound 0.4 µM), 0.279; in assay [1] (first compound 1.265 µM), 0.353; in assay [1] (first compound 4 µM), 0.263; in assay [2] (first compound 0.04 µM), 0.778. The relative viability in assay [2] (first compound 0.1265 µM) turned out to be 0.768; in assay [2] (first compound 0.4 µM), 0.58; in assay [2] (first compound 1.265 µM), 0.571; in assay [2] (first compound 4 µM) it was 0.626; in assay [3] (first compound 0.04 µM) it was 0.255; in assay [3] (first compound 0.1265 µM), 0.347. The relative viability was determined as 0.29 in assay [3] (first compound 0.4 µM); 0.161 in assay [3] (first compound 1.265 µM); 0.18 in assay [3] (first compound 4 µM); 0.212 in assay [4] (first compound 0.001 µM); 0.19 in assay [4] (first compound 0.003162 µM); 0.2 in assay [4] (first compound 0.01 µM). For the same cell line, the relative viability in assay [4] (first compound 0.03162 µM) stood at 0.192; in assay [4] (first compound 0.1 µM), 0.183.

In the case of COR-L 105, the relative viability in assay [1] (first compound 0.04 µM) was found to be 0.413; in assay [1] (first compound 0.1265 µM), 0.405; in assay [1] (first compound 0.4 µM) it was 0.426; in assay [1] (first compound 1.265 µM) it was 0.394; in assay [1] (first compound 4 µM), 0.414; in assay [2] (first compound 0.04 µM), 0.706. Further, the relative viability in assay [2] (first compound 0.1265 µM) is 0.726; in assay [2] (first compound 0.4 µM) it was 0.731; in assay [2] (first compound 1.265 µM), 0.864; in assay [2] (first compound 4 µM) it was 0.68; in assay [3] (first compound 0.04 µM) it was 0.254; in assay [3] (first compound 0.1265 µM), 0.353. The relative viability in assay [3] (first compound 0.4 µM) amounted to 0.262; in assay [3] (first compound 1.265 µM) it was 0.282; in assay [3] (first compound 4 µM), 0.305; in assay [4] (first compound 0.001 µM) it was 1.09; in assay [4] (first compound 0.003162 µM), 1.05; in assay [4] (first compound 0.01 µM), 0.973. The relative viability in assay [4] (first compound 0.03162 µM) stood at 0.981; in assay [4] (first compound 0.1 µM), 0.964.

ChaGo-K-1: the relative viability in assay [1] (first compound 0.04 µM) came to 0.979; in assay [1] (first compound 0.1265 µM), 0.922; in assay [1] (first compound 0.4 µM) it was 0.961; in assay [1] (first compound 1.265 µM), 0.996; in assay [1] (first compound 4 µM), 0.986; in assay [2] (first compound 0.04 µM), 0.588. Further, the relative viability in assay [2] (first compound 0.1265 µM) was 0.621; in assay [2] (first compound 0.4 µM), 0.525; in assay [2] (first compound 1.265 µM), 0.638; in assay [2] (first compound 4 µM) it was 0.738; in assay [3] (first compound 0.04 µM) it was 0.467; in assay [3] (first compound 0.1265 µM), 0.549. Further, the relative viability in assay [3] (first compound 0.4 µM) turned out to be 0.311; in assay [3] (first compound 1.265 µM), 0.329; in assay [3] (first compound 4 µM), 0.346; in assay [4] (first compound 0.001 µM), 0.297; in assay [4] (first compound 0.003162 µM), 0.254; in assay [4] (first compound 0.01 µM), 0.251. Moreover, the relative viability in assay [4] (first compound 0.03162 µM) worked out at 0.256; in assay [4] (first compound 0.1 µM), 0.258.

For EKVX, the relative viability in assay [1] (first compound 0.04 µM) was determined as 0.394; in assay [1] (first compound 0.1265 µM), 0.386; in assay [1] (first compound 0.4 µM), 0.326; in assay [1] (first compound 4 µM), 0.316; in assay [2] (first compound 0.04 µM), 0.965; in assay [2] (first compound 0.1265 µM) it was 0.969. Also, the relative viability in assay [2] (first compound 0.4 µM) amounted to 0.822; in assay [2] (first compound 1.265 µM) it was 0.742; in assay [2] (first compound 4 µM), 0.995; in assay [3] (first compound 0.04 µM), 0.479; in assay [3] (first compound 0.1265 µM) it was 0.494; in assay [3] (first compound 0.4 µM), 0.368. Also, the relative viability in assay [3] (first compound 1.265 µM) is 0.36; in assay [3] (first compound 4 µM), 0.329; in assay [4] (first compound 0.001 µM), 0.42; in assay [4] (first compound 0.003162 µM), 0.474; in assay [4] (first compound 0.01 µM), 0.396; in assay [4] (first compound 0.03162 µM) it was 0.409. In addition, in assay [4] (first compound 0.1 µM), the relative viability came out at 0.416.
